According to patent US6696491B2, “Treating irritable bowel syndrome or disease” (Meracol Corporation Limited, priority 2000, dated 2004):

What was measured:
IBS and/or IBD = test: Trials with a variety of patients using dosage forms of cetyl myristate alone; format: in vivo, human
[1] = laboratory experiments; website www.gcinutrients.com; cited from earlier work
[2] = tested on: Irritable Bowel Syndrome / chronic diarrhea; test: Earlier conventional medication of the trial patients (patient history); format: in vivo, human; details: for reduction of symptoms: Patient 3, IBS, tried over 40 years before the trial
Protocol: They were assessed by a gastroenterologist in 1989 and placed on long-term use of Imodium. This was given to reduce the number of bowel motions.
They also tried Colestid and was told to remain on this indefinitely to reduce their diarrhea.
Patient 3 was diagnosed with Irritable Bowel Syndrome, and over the next 40 years, tried many different medicines including Colestid sachets, Imodium, Codeine, cholestyramine, and Dicap. […] During this time, patient 3 has been admitted four times to a hospital for acute exacerbations of diarrhea.
Patient 4 has been diagnosed with irritable Bowel Syndrome for over a year and suffers from an extremely swollen abdomen with constant flatulence and diarrhea. Patient 4 has taken Mucilax, bran and has made major dietary alterations, all with no effect. Further effects of Irritable Bowel Syndrome to patient 4 included exhaustion, with the patient sleeping between 12-15 hours daily.

Compound	relief from the symptoms of IBS and/or IBD (IBS and/or IBD)	anti-arthritic activity [1]	reduction of symptoms [2]	reduction of the number of bowel motions ([2]; Patient 1, long-term use from 1989, before the trial)
CCCCCCCCCCCCCCCCOC(=O)CCCCCCCCCCCCC [cetyl myristate]	favorable responses	negligible	–	–
COc1ccc2c3c1O[C@H]1[C@@H](O)C=C[C@H]4[C@@H](C2)N(C)CC[C@@]341 [Codeine]	–	–	none of the medicines listed were able to reduce the symptoms	–
cholestyramine	–	–	none of the medicines listed were able to reduce the symptoms	–
CN(C)C(=O)C(CCN1CCC(O)(c2ccc(Cl)cc2)CC1)(c1ccccc1)c1ccccc1 [Imodium]	–	–	none of the medicines listed were able to reduce the symptoms	some benefits from this but they did not improve sufficiently
